# Measurements from patent publication US6399577B1, “Compositions and methods using myelin-associated glycoprotein (MAG) and inhibitors thereof” (Research Foundation of CUNY, Hunter College, priority 1995, dated 2002).
# Assays:
# [1] = molecular target: T1, MAG (Rattus norvegicus, UniProt P07722); assay: Neurite outgrowth of DRG neurons on MAG-expressing and control CHO cells: reversal of promotion by MAG; format: cell-based; conditions: for % Reversal of Promotion: PND 2 DRG neurons; for effect on the promotion of neurite outgrowth by MAG: increasing concentrations of sugar, text summary of TABLE 2
# T1 construct: host or cells: dhfr-deficient CHO cells (CHO-MAG2)
# T1 sequence (P07722 20-626): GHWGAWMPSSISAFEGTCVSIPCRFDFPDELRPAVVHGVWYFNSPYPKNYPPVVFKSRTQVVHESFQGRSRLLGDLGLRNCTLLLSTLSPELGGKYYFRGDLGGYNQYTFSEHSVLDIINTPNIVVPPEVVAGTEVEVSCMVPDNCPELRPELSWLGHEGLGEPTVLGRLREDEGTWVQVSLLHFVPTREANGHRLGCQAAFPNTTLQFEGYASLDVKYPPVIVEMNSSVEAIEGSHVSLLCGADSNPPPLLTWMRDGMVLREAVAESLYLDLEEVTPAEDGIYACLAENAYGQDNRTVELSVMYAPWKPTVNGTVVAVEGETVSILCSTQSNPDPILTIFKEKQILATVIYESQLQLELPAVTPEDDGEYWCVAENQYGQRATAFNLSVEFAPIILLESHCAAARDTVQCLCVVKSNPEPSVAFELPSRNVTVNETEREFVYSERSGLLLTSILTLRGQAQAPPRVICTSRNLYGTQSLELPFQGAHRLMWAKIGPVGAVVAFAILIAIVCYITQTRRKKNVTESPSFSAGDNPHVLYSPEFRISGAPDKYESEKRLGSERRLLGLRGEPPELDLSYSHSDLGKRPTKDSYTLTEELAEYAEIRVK
# Description: (§1) Confluent monolayers of control and MAG-expressing CHO cells were established over a 24-hour (h) period in individual chambers of an 8-well tissue culture slide (Lab-Tek). […] Culture medium was SATO containing 2% FCS. Where indicated, 20 mU of VCS was included throughout the coculture period (see Example 4), or monolayers were incubated with small oligosaccharides for one hour before adding the neuronal cell suspension and included throughout the coculture period. After periods of time as indicated, the cocultures were fixed for 30 min with 4% paraformaldehyde and permeabilized with ice-cold methanol for 2 min. The cells were then blocked for 30 min with DMEM containing 10% FCS and incubated for 2 h with a rabbit polyclonal antibody against the neuronal marker GAP43 (1:4000). Cells were washed three times with PBS-BSA (2%) and then incubated for 30 min at room temperature with a biotinylated donkey anti-rabbit Ig (1:300, Amersham), washed three times, and incubated with streptavidin-conjugated Texas Red (1:300, Amersham) for 30 min. After three more washes, the slides were mounted in Permfluor (Baxter) and viewed with a Zeiss fluorescent microscope. The length of the longest neurite for each GAP43-positive neuron was determined using the Biological Detection System image analysis program (Pittsburgh).
# The transfected CHO cell assay described in Example 2 may also be used to screen and identify agents that alter neurite growth properties of a particular neuronal cell type and age in a MAG-dependent fashion. Neurite outgrowth was compared for cerebellar (TABLE 1) and DRG (TABLE 2) neurons from PND 2 animals, grown on MAG-expressing and control CHO cells as described in Example 2. Where indicated, small sialic acid-bearing sugars were included in the co-cultures at increasing concentrations. 100% inhibition was taken as the difference in length of neurites on control and MAG-expressing CHO cells. Results are the mean of at least two experiments, with at least 150 neurons measured for each experiment. DD-NANA=2,3-dideoxy sialic acid; SL=sialo 2,3-α lactose.
# Single cell suspensions of different neurons at various postnatal ages were washed and resuspended in phosphate-buffered saline (PBS). Approximately 2×10^6 cells were incubated with 50 mU of Vibrio cholera sialidase (VCS, Calbiochem) (a neuraminidase) in a final volume of 0.5 ml for 2 hours at 37° C. Neurons were washed with PBS and resuspended in SATO medium containing 2% FCS for neurite outgrowth experiments, or in PBS for neurite binding assays.
# [2] = molecular target: T2, MAG (Rattus norvegicus, UniProt P07722); assay: Radiolabelled MAG-Fc binding to cerebellar neurons; conditions: PND1 cerebellar neurons; antibody 5 μg/ml or sialidase treatment of neurons before binding
# T2 construct: consisting of the extracellular domain of MAG fused to the Fc region of IgG (MAG-Fc); host or cells: COS cells
# T2 sequence (P07722 20-516 limits assumed): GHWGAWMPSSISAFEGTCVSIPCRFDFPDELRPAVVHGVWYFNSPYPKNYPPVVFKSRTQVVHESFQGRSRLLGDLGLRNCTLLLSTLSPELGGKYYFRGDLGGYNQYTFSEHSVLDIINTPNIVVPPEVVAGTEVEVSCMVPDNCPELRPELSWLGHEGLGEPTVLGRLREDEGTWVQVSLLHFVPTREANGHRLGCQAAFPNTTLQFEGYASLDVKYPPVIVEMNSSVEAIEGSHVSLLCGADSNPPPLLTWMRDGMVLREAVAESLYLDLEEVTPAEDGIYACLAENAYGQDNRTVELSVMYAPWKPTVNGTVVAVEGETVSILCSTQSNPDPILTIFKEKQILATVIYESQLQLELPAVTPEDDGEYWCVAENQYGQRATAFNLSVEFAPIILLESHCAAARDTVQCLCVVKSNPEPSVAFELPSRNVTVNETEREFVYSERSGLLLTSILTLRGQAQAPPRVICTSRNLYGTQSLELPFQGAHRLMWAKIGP
# Description: FIG. 4. sialic acid-dependent Binding of MAG to Cerebellar and DRG Neurons. Radiolabelled MAG-Fc (solid bars) was allowed to bind to PND 1 cerebellar and DRG neurons. Incubations were also carried out in the presence of 5 μg/ml of MAG 513 monoclonal antibody (dark hatched bars) or with neurons that had been desialyated (speckled bars). Each experiment was carried out in quadruplicate. The results are the mean of 3 experiments.
# MAG binds to all types of neurons tested in a sialic acid-dependent fashion (Kelm et al., Curr. Biol., 4, pp. 965-72 (1994)). […] Sialidase is an enzyme which removes sialic acid from glycoconjugates.
# [3] = system: cerebellar neurons; assay: Neurite outgrowth of cerebellar neurons on MAG-expressing versus control CHO cells; format: cell-based, rat; conditions: all ages tested, four MAG-expressing CHO cell lines
# Description: FIG. 1. Inhibition of Neurite outgrowth from Cerebellar Neurons by MAG. Cerebellar neurons from post-natal day (PND) 1, 4 and 7 were grown overnight on a monolayer of MAG-expressing (clear bars) or control transfected CHO cells (hatched bars). Neurons were stained for GAP-43 antigen and neurite length was measured and the average […] length calculated from at least 150 measurements (+/−SEM).
# as §1, with “Cells were washed three times with PBS-BSA (2%) and then incubated for 30 min at room temperature with a biotinylated donkey anti-rabbit Ig (1:300, Amersham), washed three times, and incubated with streptavidin-conjugated Texas Red (1:300, Amersham) for 30 min. After three more washes, the slides were mounted in Permfluor (Baxter) and viewed with a Zeiss fluorescent microscope.” left out
# [4] = system: retinal ganglion (RG), hippocampal (HN), motor neurons (MN) and superior-cervical ganglion (SCG); assay: Neurite outgrowth of different neuronal cell types on MAG-expressing versus control CHO cells; format: cell-based, rat; conditions: neurons from one-day old rats (PND1)
# Description: FIG. 3. Effect of MAG on Neurite Outgrowth from Different Neuronal Cell Types. Various neurons from PND1 animals were isolated and grown overnight on MAG-expressing (dark hatched) or control (light hatched) CHO cells. Average neurite length was calculated as described in FIG. 1.
# as §1, with “Cells were washed three times with PBS-BSA (2%) and then incubated for 30 min at room temperature with a biotinylated donkey anti-rabbit Ig (1:300, Amersham), washed three times, and incubated with streptavidin-conjugated Texas Red (1:300, Amersham) for 30 min. After three more washes, the slides were mounted in Permfluor (Baxter) and viewed with a Zeiss fluorescent microscope.” left out
# [5] = system: DRG neurons; assay: Neurite outgrowth of DRG neurons on MAG-expressing versus control CHO cells; format: cell-based, rat
# Description: FIG. 2. Effect of MAG on Neurite Outgrowth from DRG Neurons of Different Ages. […] 1.
# as §1
# [6] = system: cerebellar neurons; conditions: Mukhopadhyay et al.; cited from earlier work
# [7] = 1 mM sugar, MAG-expressing CHO cells
molecule,measurement,setting,value
"CC(=O)N[C@H]1[C@H]([C@H](O)[C@H](O)CO)OC(C(=O)O)=C[C@@H]1O [DD NANA, 2,3-dideoxy sialic acid]",% Reversal of Promotion,[1]; [7],0%
same,% Reversal of Promotion,"[1]; 10 mM sugar, MAG-expressing CHO cells",51%
same,% Reversal of Promotion,"[1]; 20 mM sugar, MAG-expressing CHO cells",97%
same,% Reversal of Promotion,"[1]; 20 mM sugar, control CHO cells",0%
same,effect on the promotion of neurite outgrowth by MAG,[1],abolished the promotion of neurite outgrowth by MAG completely
"sialidase: Vibrio cholera sialidase (a neuraminidase), enzyme which removes sialic acid from glycoconjugates",effect on binding of MAG to cerebellar neurons,[2],abolished
same,effect on promotion of axonal outgrowth by MAG,[1]; newborn (PND1) DRG neurons desialyated with sialidase,completely abolished
"CC(=O)N[C@H]1[C@H]([C@H](O)[C@H](O)CO)O[C@@](O[C@H]2[C@@H](O)[C@@H](CO)O[C@@H](O[C@H]3[C@H](O)[C@@H](O)C(O)O[C@@H]3CO)[C@@H]2O)(C(=O)O)C[C@@H]1O (stereo partly drawn) [SL, sialo 2,3-α lactose]",% Reversal of Promotion,[1]; [7],0%
same,% Reversal of Promotion,"[1]; 5 mM sugar, MAG-expressing CHO cells",96%
same,% Reversal of Promotion,"[1]; 18 mM sugar, MAG-expressing CHO cells",98%
same,% Reversal of Promotion,"[1]; 18 mM sugar, control CHO cells",0%
same,effect on the promotion of neurite outgrowth by MAG,[1],abolished the promotion of neurite outgrowth by MAG completely
"MAG: myelin-associated glycoprotein expressed on the surface of transfected CHO cells (protein, UniProt P07722 20-626, looked up) Myelin-associated glycoprotein: GHWGAWMPSSISAFEGTCVSIPCRFDFPDELRPAVVHGVWYFNSPYPKNYPPVVFKSRTQVVHESFQGRSRLLGDLGLRNCTLLLSTLSPELGGKYYFRGDLGGYNQYTFSEHSVLDIINTPNIVVPPEVVAGTEVEVSCMVPDNCPELRPELSWLGHEGLGEPTVLGRLREDEGTWVQVSLLHFVPTREANGHRLGCQAAFPNTTLQFEGYASLDVKYPPVIVEMNSSVEAIEGSHVSLLCGADSNPPPLLTWMRDGMVLREAVAESLYLDLEEVTPAEDGIYACLAENAYGQDNRTVELSVMYAPWKPTVNGTVVAVEGETVSILCSTQSNPDPILTIFKEKQILATVIYESQLQLELPAVTPEDDGEYWCVAENQYGQRATAFNLSVEFAPIILLESHCAAARDTVQCLCVVKSNPEPSVAFELPSRNVTVNETEREFVYSERSGLLLTSILTLRGQAQAPPRVICTSRNLYGTQSLELPFQGAHRLMWAKIGPVGAVVAFAILIAIVCYITQTRRKKNVTESPSFSAGDNPHVLYSPEFRISGAPDKYESEKRLGSERRLLGLRGEPPELDLSYSHSDLGKRPTKDSYTLTEELAEYAEIRVK",inhibition of neurite outgrowth compared to control cells,[3],at least 70%
same,effect on neurite growth,[4],potent inhibitor of neurite growth in all cell types tested
same,inhibition of neurite outgrowth,[5]; DRG neurons from adult rats,about 40%
same,neurite length on MAG-expressing cells compared to control cells,[5]; DRG neurons from two-day old rats,almost twice as long
"Po: another myelin protein expressed by CHO cells, specificity control (protein, UniProt P25189 30-248, looked up) Myelin protein P0: IVVYTDREVHGAVGSRVTLHCSFWSSEWVSDDISFTWRYQPEGGRDAISIFHYAKGQPYIDEVGTFKERIQWVGDPRWKDGSIVIHNLDYSDNGTFTCDVKNPPDIVGKTSQVTLYVFEKVPTRYGVVLGAVIGGVLGVVLLLLLLFYVVRYCWLRRQAALQRRLSAMEKGKLHKPGKDASKRGRQTPVLYAMLDHSRSTKAVSEKKAKGLGESRKDKK",effect on neurite outgrowth of CHO cells expressing the protein,[6],lack of effect
